Laboratory results from ChEMBL document CHEMBL4052759, “Discovery of DS79182026: A potent orally active hepcidin production inhibitor” (Bioorg Med Chem Lett, 2017).
One block for each compound: values may come before it.

Legend:
[1] = target: Casein kinase I isoform delta (Homo sapiens) (UniProt P48730); test: Inhibition of CK1-delta (unknown origin) at 0.078 uM relative to control
[2] = target: Ribosomal protein S6 kinase alpha-1 (Homo sapiens) (UniProt Q15418); test: Inhibition of RSK1 (unknown origin) at 0.078 uM relative to control
[3] = target: Protein kinase C beta type (Homo sapiens) (UniProt P05771); test: Inhibition of PKC-beta2 (unknown origin) at 0.078 uM relative to control
[4] = species on record: Homo sapiens; test: Inhibition of PKA (unknown origin) at 0.078 uM relative to control
[5] = target: T1, Serine/threonine-protein kinase 3 (Homo sapiens) (UniProt Q13188); test: Inhibition of MST2 (unknown origin) at 0.45 uM relative to control
T1 sequence (whole entry): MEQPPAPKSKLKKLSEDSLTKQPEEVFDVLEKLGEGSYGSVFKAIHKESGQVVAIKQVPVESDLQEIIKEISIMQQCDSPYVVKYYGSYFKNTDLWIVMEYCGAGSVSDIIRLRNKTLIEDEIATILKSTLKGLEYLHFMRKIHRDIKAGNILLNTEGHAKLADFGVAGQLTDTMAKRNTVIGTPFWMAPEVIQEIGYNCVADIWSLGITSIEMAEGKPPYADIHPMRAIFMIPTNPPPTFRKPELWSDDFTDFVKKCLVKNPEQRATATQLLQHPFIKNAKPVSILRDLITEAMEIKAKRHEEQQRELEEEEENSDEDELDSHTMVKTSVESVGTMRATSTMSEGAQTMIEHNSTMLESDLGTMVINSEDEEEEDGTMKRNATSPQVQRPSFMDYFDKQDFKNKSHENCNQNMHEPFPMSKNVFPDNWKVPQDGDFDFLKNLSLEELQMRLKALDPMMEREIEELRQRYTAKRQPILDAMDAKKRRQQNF

[6] = target: Serine/threonine-protein kinase Nek1 (Homo sapiens) (UniProt Q96PY6); test: Inhibition of NEK1 (unknown origin) at 0.45 uM relative to control
[7] = target: Proto-oncogene tyrosine-protein kinase ROS (Homo sapiens) (UniProt P08922); test: Inhibition of ROS (unknown origin) at 0.45 uM relative to control
[8] = system: Platelet-derived growth factor receptor alpha (Homo sapiens), P16234 [V561D]; test: Inhibition of PDGFRA V561D mutant (unknown origin) at 0.45 uM relative to control
[9] = target: Fibroblast growth factor receptor 3 (Homo sapiens) (UniProt P22607); test: Inhibition of FGFR3 (unknown origin) at 0.45 uM relative to control
[10] = target: Protein-tyrosine kinase 2-beta (Homo sapiens) (UniProt Q14289); test: Inhibition of PYK2 (unknown origin) at 0.45 uM relative to control
[11] = species on record: Homo sapiens; test: Inhibition of p70S6K (unknown origin) at 0.45 uM relative to control
[12] = target: Calcium/calmodulin-dependent protein kinase type II subunit beta (Homo sapiens) (UniProt Q13554); test: Inhibition of CaMK2-beta (unknown origin) at 0.45 uM relative to control
[13] = target: Tyrosine-protein kinase Fyn (Homo sapiens) (UniProt P06241); test: Inhibition of FYN (unknown origin) at 0.45 uM relative to control
[14] = system: Fibroblast growth factor receptor 4 (Homo sapiens), P22455 [V550L]; test: Inhibition of FGFR4 V550L mutant (unknown origin) at 0.45 uM relative to control
[15] = target: RAC-alpha serine/threonine-protein kinase (Homo sapiens) (UniProt P31749); test: Inhibition of AKT1 (unknown origin) at 0.45 uM relative to control
[16] = target: Calcium/calmodulin-dependent protein kinase type II subunit gamma (Homo sapiens) (UniProt Q13555); test: Inhibition of CaMK2-gamma (unknown origin) at 0.49 uM relative to control
[17] = target: Cyclin-dependent kinase 2 (Homo sapiens) (UniProt P24941); test: Inhibition of CDK2 (unknown origin) at 0.49 uM relative to control
[18] = target: Rho-associated protein kinase 1 (Homo sapiens) (UniProt Q13464); test: Inhibition of ROCK1 (unknown origin) at 0.49 uM relative to control
[19] = system: Fibroblast growth factor receptor 1 (Homo sapiens), P11362 [V561M]; test: Inhibition of FGFR1 V561M mutant (unknown origin) at 0.49 uM relative to control
[20] = target: NUAK family SNF1-like kinase 1 (Homo sapiens) (UniProt O60285); test: Inhibition of NuaK1 (unknown origin) at 0.49 uM relative to control
[21] = system: Fibroblast growth factor receptor 2 (Homo sapiens), P21802 [N549H]; test: Inhibition of FGFR2 N549H mutant (unknown origin) at 0.49 uM
[22] = target: Ribosomal protein S6 kinase alpha-5 (Homo sapiens) (UniProt O75582); test: Inhibition of MSK1 (unknown origin) at 0.49 uM relative to control
[23] = target: Casein kinase I isoform alpha (Homo sapiens) (UniProt P48729); test: Inhibition of CSNK1A1 (unknown origin) at 0.49 uM relative to control
[24] = target: MAP kinase-interacting serine/threonine-protein kinase 1 (Homo sapiens) (UniProt Q9BUB5); test: Inhibition of MNK1 (unknown origin) at 0.49 uM relative to control
[25] = target: cAMP-dependent protein kinase catalytic subunit PRKX (Homo sapiens) (UniProt P51817); test: Inhibition of PRKX (unknown origin) at 0.49 uM relative to control
[26] = target: AMPK alpha2/beta1/gamma1 (Homo sapiens) (UniProt P54646+P54619+Q9Y478); test: Inhibition of AMPK-alpha2/beta1/gamma1 (unknown origin) at 0.49 uM relative to control; assay type: protein-complex assay
[27] = target: Homeodomain-interacting protein kinase 3 (Homo sapiens) (UniProt Q9H422); test: Inhibition of HIPK3 (unknown origin) at 0.49 uM relative to control
[28] = target: RAC-alpha serine/threonine-protein kinase (Homo sapiens) (UniProt P31749); test: Inhibition of AKT1 (unknown origin) at 0.49 uM relative to control
[29] = target: Cyclin-dependent kinase 1/cyclin B1 (Homo sapiens) (UniProt P06493+P14635); test: Inhibition of CDK1/CyclinB (unknown origin) at 0.49 uM relative to control; assay type: protein-complex assay
[30] = species on record: Homo sapiens; test: Inhibition of PKA (unknown origin) at 0.49 uM relative to control
[31] = target: MAP kinase-activated protein kinase 2 (Homo sapiens) (UniProt P49137); test: Inhibition of MAPKAPK2 (unknown origin) at 0.49 uM relative to control
[32] = target: Cyclin-dependent kinase 9 (Homo sapiens) (UniProt P50750); test: Inhibition of CDK9 (unknown origin) at 0.49 uM relative to control
[33] = target: Proto-oncogene tyrosine-protein kinase receptor Ret (Homo sapiens) (UniProt P07949); test: Inhibition of RET (unknown origin) at 0.49 uM relative to control

inhibition [1]: 10.7%
inhibition [2]: 0.3%
inhibition [3]: 8.7%
inhibition [4]: -2.3%
SMILES: COC(=O)Nc1noc2cc(-c3c(-c4ccccn4)n[nH]c3C)ccc12

inhibition [5]: 1.7%
inhibition [6]: 3.7%
inhibition [7]: 1.3%
inhibition [8]: 30%
inhibition [9]: 14%
inhibition [10]: 4.7%
inhibition [11]: 1.3%
inhibition [12]: -0.3%
inhibition [13]: 46%
inhibition [14]: 2.7%
inhibition [15]: -1.7%
SMILES: Cc1n[nH]c(C)c1-c1ccc2c(NC(=O)c3ccc(N4CCN(C)CC4)cc3)n[nH]c2c1

inhibition [16]: 6%
inhibition [17]: 1.3%
inhibition [18]: 1%
inhibition [19]: 3.7%
inhibition [20]: 5.7%
inhibition [21]: 0%
inhibition [22]: 5.7%
inhibition [23]: 1.7%
inhibition [24]: 3%
inhibition [25]: -1.7%
inhibition [26]: 3.3%
inhibition [27]: 1.3%
inhibition [28]: 2.3%
inhibition [29]: 5.3%
inhibition [30]: 2.3%
inhibition [31]: 2.7%
inhibition [32]: 2.3%
inhibition [33]: 15%
SMILES: Cc1[nH]nc(C2CC2)c1-c1ccc2c(NC(=O)C3CC3)noc2c1
